Values joined by “and” are separate entries in the source; they are usually repeats but may differ in a detail not shown here. Identical values can stand only once.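 Protocol summary: plate cells (96-well), add compound at 5 concentrations, incubate 48 h, interpolate endpoints linearly. GI50 = concentration required for 50% inhibition of growth. TGI: concentration producing complete growth inhibition.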
Assays:
Assay in all cases: NCI anticancer screen, dose series, 48 h
CAKI-1 renal = test system: CAKI-1 renal
UACC-257 melanoma = test system: UACC-257 melanoma
IGROV1 ovarian = test system: IGROV1 ovarian
HL-60(TB) leukemia = test system: HL-60(TB) leukemia
SNB-75 CNS = test system: SNB-75 CNS
SW-620 colon = test system: SW-620 colon
OVCAR-3 ovarian = test system: OVCAR-3 ovarian
OVCAR-5 ovarian = test system: OVCAR-5 ovarian
M14 melanoma = test system: M14 melanoma

SMILES | GI50 (CAKI-1 renal) [µM] | GI50 (UACC-257 melanoma) | TGI (UACC-257 melanoma) | GI50 (IGROV1 ovarian) [µM] | TGI (IGROV1 ovarian) | GI50 (HL-60(TB) leukemia) [µM] | GI50 (SNB-75 CNS) [µM] | TGI (SNB-75 CNS) | TGI (CAKI-1 renal) | TGI (SW-620 colon) | TGI (OVCAR-3 ovarian) | TGI (OVCAR-5 ovarian) | TGI (HL-60(TB) leukemia) [µM] | TGI (M14 melanoma) [µM] | GI50 (SW-620 colon) [µM] | GI50 (OVCAR-3 ovarian) [µM] | GI50 (M14 melanoma) [µM] | GI50 (OVCAR-5 ovarian) [µM]
Nc1ncc(-c2ccc3ncnc(Nc4cccc(Cl)c4)c3c2)cn1 | 0.0346 | > 100 µM | > 100 µM | 0.0206 | 0.223 µM | 0.525 | 0.109 | 0.695 µM | – | – | – | – | – | – | – | – | – | –
O=C1c2ccccc2-c2c3c(cc4ccnc1c24)OCO3 | – | 5.23 µM and 2.59 µM | 39.2 µM and 11.7 µM | – | > 100 µM and 34.3 µM | – | – | 26.3 µM and 21.1 µM | 28.1 µM and 15.5 µM | 23.4 µM and > 100 µM | 60.4 µM and 48.9 µM | 37.8 µM and 57.6 µM | 15.6 | > 100 | – | – | – | –
O=C1Nc2c(Cl)cc(Cl)cc2/C1=N/N=C/c1ccco1 | – | – | > 100 µM | – | > 100 µM | – | – | 42.7 µM | 72.8 µM | > 100 µM | 95.1 µM | > 100 µM | > 100 | > 100 | – | – | – | –
c1ccc(SC(Sc2ccccc2)=C2CCC2)cc1 | – | – | > 100 µM | – | – | – | – | > 100 µM | > 100 µM | > 100 µM | > 100 µM | – | > 100 | > 100 | – | – | – | –
CN(C)c1ccc(/C=c2\sc3nnc(-c4ccco4)n3c2=O)cc1 | – | – | > 100 µM | – | > 100 µM | – | – | > 100 µM | > 100 µM | > 100 µM | > 100 µM | > 100 µM | > 100 | > 100 | – | – | – | –
CCN(CC)CCN(CC)CC.CCN(CC)CCN(CC)CC.[Cu+2].[Cu+2].[O-][Cl+3]([O-])([O-])[O-].[OH3+].[OH3+] | > 100 | > 100 µM | > 100 µM | 29.4 | 87.9 µM | 30.8 | 23.6 | 39.4 µM | > 100 µM | > 100 µM | 55.8 µM | – | > 100 | > 100 | > 100 | 23.9 | > 100 | –
CCC[CH2][Sn](=[O])[CH2]CCC | > 35.1 | > 50 µM | > 50 µM | > 50 | > 50 µM | > 36.2 | > 39.7 | > 50 µM | > 50 µM | > 50 µM | > 50 µM | > 50 µM | > 50 | > 50 | > 50 | > 50 | > 50 | > 30.3
CC1SC(c2ccccc2Cl)N(NC(=O)C(O)c2ccccc2)C1=O (centres undefined) | 44.6 | 49.5 µM | > 100 µM | 73.1 | > 100 µM | 82.4 | > 100 | > 100 µM | > 100 µM | > 100 µM | > 100 µM | > 100 µM | > 100 | > 100 | > 100 | 35.4 | 94.3 | > 100
Cc1cccc(-c2nnc3s/c(=C\c4ccc(N(C)C)cc4)c(=O)n23)c1 | – | – | > 100 µM | – | > 100 µM | – | – | > 100 µM | > 100 µM | > 100 µM | > 100 µM | > 100 µM | > 100 | > 100 | – | – | – | –
Cc1ccc(/C=C/C(=O)c2ccc(Cl)c(Cl)c2)cc1 | – | – | > 100 µM | – | > 100 µM | – | – | > 100 µM | > 100 µM | > 100 µM | > 100 µM | > 100 µM | > 100 | > 100 | – | – | – | –
CC(Oc1ccc2c(-c3ccc(Cl)cc3)cc(=O)oc2c1)C(=O)O (centres undefined) | – | – | > 100 µM | – | > 100 µM | – | – | > 100 µM | > 100 µM | > 100 µM | > 100 µM | – | > 100 | > 100 | – | – | – | –
O=[N+]([O-])c1nccn1CC(O)c1ccccc1 (centres undefined) | – | – | > 100 µM | – | > 100 µM | – | – | > 100 µM | > 100 µM | > 100 µM | > 100 µM | > 100 µM | > 100 | > 100 | – | – | – | –
COc1ccc(/C=C/c2cc(OC)c(OC(C)=O)c(OC)c2)cc1 | – | – | 66.9 µM | – | > 100 µM | – | – | 60.5 µM | – | – | > 100 µM | 59 µM | – | > 100 | – | – | – | –
CCOC(=O)C12CCCC1(O)N(NC(=O)OC)C(C)=C2C(=O)OC (centres undefined) | – | – | > 100 µM | – | > 100 µM | – | – | – | > 100 µM | > 100 µM | > 10 µM | > 100 µM | > 100 | > 100 | – | – | – | –
CSC(=O)C[C@@]12O[C@@H]([C@@H](C)C3CCC4[C@@H]5C(O)CC6=CC(=O)C=C[C@]6(C)C5CC[C@@]43C)C[C@](C)(O1)C(C)(C)O2 (some centres undefined) | – | – | 26.9 µM | – | 46.2 µM | – | – | – | 34.9 µM | 33.2 µM | 30.2 µM | 31.8 µM | 38.2 | 33.3 | – | – | – | –
COc1ccc(CC(=O)NCCc2ccc(OC)c(OC)c2OC)cc1 | – | – | > 100 µM | – | > 100 µM | – | – | > 100 µM | – | > 100 µM | – | > 100 µM | – | > 100 | – | – | – | –
CCCCCCCCCCCCSC(=S)c1c(C)[nH]n(-c2ccccc2)c1=O | – | – | 29.5 µM | – | > 50 µM | – | – | – | > 50 µM | > 50 µM | 46.1 µM | > 50 µM | 24.4 | > 50 | – | – | – | –
Nc1nc(=O)n(C2CCC(CO)O2)cc1F (centres undefined) | – | – | > 100 µM | – | – | – | – | > 100 µM | > 100 µM | > 100 µM | > 100 µM | > 100 µM | > 100 | > 100 | – | – | – | –
